Test results taken from patent EP0866656B1, “USE OF N-SUBSTITUTED PYRIDONES AS TUMOR NECROSIS FACTOR ALPHA INHIBITORS” (MARGOLIN, Solomon B., priority 1995, dated 1997).
“And” between values parts separate entries of the source, which are not always exact repeats. Equal entries are not always repeated.

Key:
human T cells = conditions: cited from earlier work; for inhibition of T cell activation (proliferation and IL-2 secretion): anti-CD3 antibody
mouse T cells = conditions: cited from earlier work; for inhibition of T cell activation (proliferation and IL-2 secretion): anti-CD3 antibody
TNF-α [1] = conditions: oral dosing, serum TNF-α; cited from earlier work
THP-1 cells = conditions: LPS-activated THP-1 cells; read-out: 1C50S, inhibition of TNF-α secretion; cited from earlier work
TNF-α [2] = conditions: cited from earlier work
macrophages = experiment: Toxicity to macrophages in culture; assay type: cell-based, murine; conditions: 0.9 mg/ml
Description: (§1) The reduction was directly related to the concentration of pirfenidone in the culture media.

TNF-α [3] = experiment: TNF induction by macrophages exposed to LPS (TNF bioassay of culture medium); assay type: cell-based, murine; conditions: for TNF induction by macrophages exposed to LPS, Mean +/- S.E.: mean of experiments 1-6
Description: as §1
(§2) The ability of pirfenidone and related compounds to block the synthesis and the release of TNF-α from macrophages, as well as other cells, was bioassayed by the method of Morgan, Mills, D.L. Lefkowitz, and S.S. Lefkowitz ("An Improved Colorimetric Assay for Tumor Necrosis Factor Using […] Cells Cultured on Novel Microtiter Plates," Jour. Immunol. Method., 145:259-262, 1991).

[4] = Diffusion capacity of the lungs (serial DLCO) in patients with pulmonary dysfunction; assay type: in vivo; conditions: oral, preliminary tests
TNF-α [5] = experiment: Endotoxin [LPS] shock in animals (Example III); assay type: in vivo; conditions: i.p. dosages of 30-400 milligrams per kilogram of body weight
TNF-α [6] = experiment: In vivo induction of circulating (serum) TNF-α by LPS in mice
Method: This model is a modification of that previously described for the in vivo induction of circulating TNF-α, (Haranaka et al., Cancer Immunol. Immunother, 18:87-90,1984).
The bioassays for TNF-α were confirmed in monitoring tests by using a modification of the basic sandwich ELISA method (Winston et al., "Current Protocols in Molecular Biology," page 11.2.1, Ausubel et al., Ed. 1987.) All other plasma levels of TNF were measured using a modification of the basic sandwich ELISA method (Winston et al., "Current Protocols in Molecular Biology," Pg. 11.2.1, Ausubel et al., Ed. 1987.).
The LPS was injected intravenously into the mice at a dosage of 2.5 micrograms (in a volume of […] from a stock solution of 100 micrograms per […]) per mouse, and the Pirfenidone was administered immediately thereafter. The mice were then bled by cardiac puncture 90 minutes later. Subsequently, the serum was analyzed for TNF-α by a ELISA kit (Endogen).

[7] = tested on: WEHI neoplastic fibroblast cells; experiment: Killing of WEHI neoplastic fibroblast cells by TNF-α; assay type: cell-based; conditions: in vitro, 33 to 300 micrograms/milliliter
Description: (§3) In vitro, pirfenidone at concentrations of 33-900 micrograms/milliliter inhibited the synthesis and/or release of excessive and pathophysiologic amounts of TNF-α from WEHI 164 cells (Table 1, page 40). […]

[8] = Lethality caused by LPS plus D-galactosamine in mice (Example IV); assay type: in vivo
WEHI 164 cells = experiment: Inhibition of synthesis and/or release of TNF-α from WEHI 164 cells; assay type: cell-based; conditions: in vitro, 33-900 micrograms/milliliter
Description: as §3, §2

TNF-α [9] = experiment: TNF-α synthesis within lysed macrophages, ELISA (Example II); assay type: cell-based, murine; conditions: 60 minutes
Method: In order to determine the direct impact of graded concentrations of pirfenidone upon the synthesis of TNF-α within the cytoplasm of murine macrophages, cell cultures of macrophages, grown in appropriate culture media, were treated with the respective concentrations pirfenidone for 60 minutes: (1) without exposure to LPS (controls) and (2) exposure to 1.0 pg/ml of LPS (E. coli.). Promptly after an exposure for 60 minutes, (a) the macrophages were separated from the culture medium by centrifugation, and (b) the macrophages were lysed. Subsequently, the lysed contents (cell cytoplasm and nucleus) from the macrophage cells were assayed via ELISA for TNF-α levels.

## CC(C)(C)NCC(O)c1ccc(O)c(CO)c1 (stereo not shown) [albuterol]
Human T cells
  inhibition of T cell activation (proliferation and IL-2 secretion): completely inactive
Mouse T cells
  inhibition of T cell activation (proliferation and IL-2 secretion): completely inactive
TNF-α [1]
  duration of efficacy: much shorter duration of action

## OCc1cc(C(O)CNCCCCCCOCCCCc2ccccc2)ccc1O (stereo not shown) [salmeterol]
Human T cells
  inhibition of T cell activation (proliferation and IL-2 secretion): able to inhibit
  T cell inhibition, fold less potent than that for TNF-α production: about 10 fold
THP-1 cells
  IC50: ~100 nM
Mouse T cells
  inhibition of T cell activation (proliferation and IL-2 secretion): able to inhibit
  T cell inhibition, fold less potent than that for TNF-α production: about 10 fold
TNF-α [2]; LPS/galactosamine endotoxic shock
  inhibition of serum TNF-α levels: up to 94%
TNF-α [2]; in vivo
  animals protected from the lethal effects of the LPS/galactosamine mixture: less than 50%
TNF-α [1]
  duration of efficacy: 3 h

## Cc1ccc(=O)n(-c2ccccc2)c1 [pirfenidone, 5-Methyl-1-phenyl-2-(1H)-pyridone]
macrophages
  toxicity with macrophages: No toxicity was apparent
TNF-α [3]; Pirfenidone 100 micrograms/ml
  TNF induction by macrophages exposed to LPS, Mean +/- S.E.: 144+/-29 Relative TNF Units
TNF-α [3]; Pirfenidone 100 micrograms/ml, pre-incubation 0 hours
  TNF induction by macrophages exposed to LPS: 109 Relative TNF Units and 87 Relative TNF Units
TNF-α [3]; Pirfenidone 100 micrograms/ml, pre-incubation 24 hours
  TNF induction by macrophages exposed to LPS: 209 Relative TNF Units
TNF-α [3]; Pirfenidone 300 micrograms/ml
  TNF induction by macrophages exposed to LPS, Mean +/- S.E.: 84+/-31 Relative TNF Units
TNF-α [3]; Pirfenidone 300 micrograms/ml, pre-incubation 24 hours
  TNF induction by macrophages exposed to LPS: 143 Relative TNF Units
TNF-α [3]; Pirfenidone 900 micrograms/ml
  TNF induction by macrophages exposed to LPS, Mean +/- S.E.: 43+/-18 Relative TNF Units
TNF-α [3]; Pirfenidone 900 micrograms/ml, pre-incubation 24 hours
  TNF induction by macrophages exposed to LPS: 111 Relative TNF Units
TNF-α [3]; thioglycollate-induced murine peritoneal macrophages exposed to LPS, P<0.01
  level of TNF-α secreted into the culture medium: markedly reduced level
[4]
  diffusion capacity of the lungs as measured by serial DLCO determinations: marked, rapid and consistent improvement
TNF-α [5]
  pathophysiological toxic effects of TNF-α (endotoxin [LPS] shock): inhibited or completely blocked
TNF-α [6]; LPS 2.5 micrograms i.v. per mouse, bled 90 minutes later
  inhibition of the rise in TNF-α serum levels as compared to Control Group: 50%
TNF-α [6]; mice, 200 milligrams per kilogram intraperitoneal or greater, maintained for hours
  formation and release of TNF-α into the circulation: complete blockage
TNF-α [6]; oral, same dosages
  efficacy when given orally (rise in TNF-α serum levels): effective in the same dosages
[7]
  killing of WEHI neoplastic fibroblast cells by TNF-α: did not inhibit
[8]; 300 mg/kg i.p. 30 minutes prior to LPS plus D-galactosamine
  serum levels of TNF-α in the surviving mice: approached normal baseline levels
[8]; 300 mg/kg i.p. 30 minutes prior to i.v. LPS plus 600mg/kg i.p. D-galactosamine, observed 2 days, 100.0% without pirfenidone
  mortality: 10.0%
WEHI 164 cells
  synthesis and/or release of excessive and pathophysiologic amounts of TNF-α from WEHI 164 cells: inhibited
TNF-α [9]; LPS (E. coli.) 1.0 pg/ml, concentration related, P< 0.01
  LPS induced rise in TNF-α synthesis within cytoplasm and nucleus of macrophages: inhibition
TNF-α [9]; controls, no exposure to LPS, 0.9 mg/ml
  levels of TNF-α within the cytoplasm of the macrophages: only baseline levels were found
